According to article PMC4928820 (Molecular Pharmaceutics, 2015):

Format: physicochemical
Settings: 37 °C, mean ± SD, triplicate; for Thermodynamic solubility in Carbitol: cosolvent; for Thermodynamic solubility in Maisine 35-1: long-chain mono-; for Thermodynamic solubility in Maisine 35-1 / Thermodynamic solubility in Capmul MCM EP: di-, triglyceride; for Thermodynamic solubility in Capmul MCM EP: medium-chain mono-; for Thermodynamic solubility in Cremophor EL: surfactant (≤3% w/w water)

Thermodynamic solubility in Carbitol [mg/g]	Thermodynamic solubility in Maisine 35-1 [mg/g]	Thermodynamic solubility in Capmul MCM EP [mg/g]	Thermodynamic solubility in Cremophor EL [mg/g]	SMILES
85.5 ± 4.29	14.1 ± 1.18	26.0 ± 1.45	70.6 ± 3.87	Cc1c(Cl)cccc1Nc1ccccc1C(=O)O [tolfenamic acid]
22.8 ± 0.54	11.7 ± 0.24	16.3 ± 0.44	15.9 ± 0.83	CC(C)/N=c1\cc2n(-c3ccc(Cl)cc3)c3ccccc3nc-2cc1Nc1ccc(Cl)cc1 [clofazimine]
77.0 ± 2.04	1.99 ± 0.19	9.07 ± 0.38	26.4 ± 1.46	CCOc1nc2cccc(C(=O)OC(C)OC(=O)OC3CCCCC3)c2n1Cc1ccc(-c2ccccc2-c2nnn[nH]2)cc1 (stereo not drawn) [candesartan cilexetil]
6.30 ± 0.55	2.26 ± 0.16	5.60 ± 0.67	1.92 ± 0.29	CCC(C)n1ncn(-c2ccc(N3CCN(c4ccc(OCC5COC(Cn6cncn6)(c6ccc(Cl)cc6Cl)O5)cc4)CC3)cc2)c1=O (stereo not drawn) [itraconazole]
5.99 ± 0.19	3.86 ± 0.21	3.17 ± 0.10	2.75 ± 0.14	CCCSc1ccc2nc(NC(=O)OC)[nH]c2c1 [albendazole]
18.9 ± 0.99	2.43 ± 0.05	5.56 ± 0.21	9.70 ± 0.36	COC1=CC(=O)C[C@@H](C)[C@]12Oc1c(Cl)c(OC)cc(OC)c1C2=O [griseofulvin]
16.4 ± 0.72	0.16 ± 0.02	3.16 ± 0.06	13.1 ± 1.02	O=C(O)c1cc(/N=N/c2ccc(S(=O)(=O)Nc3ccccn3)cc2)ccc1O [sulfasalazine]
67.02 ± 1.36	66.2 ± 4.87	99.1 ± 2.94	41.1 ± 1.27	CC(=O)[C@H]1CC[C@H]2[C@@H]3CCC4=CC(=O)CC[C@]4(C)[C@H]3CC[C@]12C [progesterone]
≥317	≥123	≥288		CC(C)(C)NC(=O)[C@@H]1C[C@@H]2CCCC[C@@H]2CN1C[C@@H](O)[C@H](Cc1ccccc1)NC(=O)[C@H](CC(N)=O)NC(=O)c1ccc2ccccc2n1 [saquinavir]
43.0 ± 1.83	1.55 ± 0.05	6.36 ± 0.26	37.9 ± 5.23	CC(C)(Oc1ccc(CCNC(=O)c2ccc(Cl)cc2)cc1)C(=O)O [bezafibrate]
116.9 ± 14.8	85.9 ± 5.32	184.9 ± 12.4	45.4 ± 3.51	O=C(C1CCCCC1)N1CC(=O)N2CCc3ccccc3C2C1 (stereo not drawn) [praziquantel]
21.1 ± 0.46	0.52 ± 0.14	5.49 ± 0.26	11.2 ± 1.01	COc1ccc(Cl)cc1C(=O)NCCc1ccc(S(=O)(=O)NC(=O)NC2CCCCC2)cc1 [glibenclamide]
79.3 ± 7.90	71.2 ± 4.58	52.6 ± 3.01	27.9 ± 0.79	CCCCN(CCCC)CCC(O)c1cc2c(Cl)cc(Cl)cc2c2cc(C(F)(F)F)ccc12 (stereo not drawn) [halofantrine]
135.0 ± 3.57	75.4 ± 8.95	136.7 ± 5.94	44.1 ± 3.01	Clc1ccccc1C(c1ccccc1)(c1ccccc1)n1ccnc1 [clotrimazole]
92.8 ± 4.81	7.38 ± 0.22	14.5 ± 0.50	58.4 ± 2.59	CC(C)(Oc1ccc(C(=O)c2ccc(Cl)cc2)cc1)C(=O)O [fenofibric acid]
162.6 ± 8.46	49.0 ± 3.05	47.2 ± 2.05	88.8 ± 3.66	CCN(CC)C(=S)SSC(=S)N(CC)CC [disulfiram]

Second part, the molecule before the results:

SMILES	Thermodynamic solubility in Carbitol [mg/g]	Thermodynamic solubility in Maisine 35-1 [mg/g]	Thermodynamic solubility in Capmul MCM EP [mg/g]	Thermodynamic solubility in Cremophor EL [mg/g]
CCOC(=O)C1=C(C)NC(C)=C(C(=O)OC)C1c1cccc(Cl)c1Cl (stereo not drawn) [felodipine]	217.2 ± 16.0	37.7 ± 1.37	80.2 ± 2.22	125.1 ± 6.23
OCCN(CCO)c1nc(N2CCCCC2)c2nc(N(CCO)CCO)nc(N3CCCCC3)c2n1 [dipyridamole]	43.1 ± 2.40	3.02 ± 0.16	12.3 ± 0.36	9.57 ± 0.29
Cc1cc(-n2c(=O)[nH]c(=O)n(C)c2=O)ccc1Oc1ccc(SC(F)(F)F)cc1 [toltrazuril]	50.2 ± 2.47	7.90 ± 1.03	11.8 ± 0.59	19.7 ± 3.11
C#C[C@]1(O)CC[C@H]2[C@@H]3CCc4cc(O)ccc4[C@H]3CC[C@@]21C [ethinylestradiol]	247.1 ± 8.93	22.1 ± 1.83	56.3 ± 1.76	163.9 ± 10.1
O=C(O)c1cc(-c2ccc(F)cc2F)ccc1O [diflunisal]	286.3 ± 13.4	31.6 ± 0.99	53.4 ± 1.29	157.9 ± 6.54
COc1ccc2c(c1)c(CC(=O)O)c(C)n2C(=O)c1ccc(Cl)cc1 [indomethacin]	187.4 ± 7.08	13.0 ± 0.88	28.6 ± 1.30	71.6 ± 4.57
COc1cc(C)c(/C=C/C(C)=C/C=C/C(C)=C/C(=O)O)c(C)c1C [acitretin]	3.52 ± 0.20	0.62 ± 0.06	1.54 ± 0.10	2.85 ± 0.14
O=C(CCCN1CCC(O)(c2ccc(Cl)cc2)CC1)c1ccc(F)cc1 [haloperidol]	27.2 ± 1.82	3.57 ± 0.16	13.4 ± 0.51	11.3 ± 0.82
O=C(Nc1ccc([N+](=O)[O-])cc1Cl)c1cc(Cl)ccc1O [niclosamide]	49.6 ± 2.62	3.97 ± 0.19	10.1 ± 0.40	44.1 ± 1.75
COc1ccc2c(c1OC)C(=O)O[C@@H]2[C@H]1c2c(cc3c(c2OC)OCO3)CCN1C [noscapine]	25.6 ± 1.00	5.36 ± 0.61	7.23 ± 0.20	12.3 ± 0.25
CCOc1nc2cccc(C(=O)O)c2n1Cc1ccc(-c2ccccc2-c2nnn[nH]2)cc1 [candesartan]	20.5 ± 1.26	≤0.41	3.19 ± 0.14	11.3 ± 0.67
NC(=O)N1c2ccccc2C=Cc2ccccc21 [carbamazepine]	82.9 ± 1.80	30.0 ± 1.66	55.5 ± 3.23	34.5 ± 1.06
